# Results: patent publication US5691338A, “1,2-dithiole-3 thiones for the treatment of reverse transcriptase-dependent viral infections” (priority 1995, dated 1997)
# Entries after “also recorded” stand apart in the source; their conditions may differ. Like-named read-outs stand apart in the source and are kept apart here.
# Assays:
# [1] = tested on: glutathione levels (GSH) in H9 cells; test: Elevation of glutathione (GSH) levels in H9 cells; type: cell-based, human; settings: for fold induction at 30 µM / fold induction at 60 µM / fold induction at 120 µM: Homo sapiens, read-out: Glutathione levels, treated to control value
# Procedure: Five ml of medium was added to T-25 flasks and DMSO containing tests compounds were added to a final concentration of 0.1%. Control medium contained 0.1% DMSO. After the drugs were added, 5×10^6 cells in 5 ml of medium was added to each T-25 flask. The cells were grown at 37° C. in a humidified incubator supplemented with 5% CO2 until harvested (N=3 flasks/group). At the indicated times, cells were isolated by centrifugation (500×g×10 min) and were washed three times by adding 10 ml of ice-cold DPBS, mixing, and centrifuging in a refrigerated centrifuge (500×g×10 min) to isolate the cell pellets. The cells were then lysed by the addition of 400 μl of ice-cold DPBS containing 0.5% Triton X-100 and vortexing. Supernatants were then isolated by centrifuging the lysates (5000×g×20 min). Samples were kept on ice or refrigerated until the reagents for QR or GSH spectrophotometric assays were added to the aliquoted microtiter plates. QR levels were determined by aliquoting 10 μl/well of supernatant in a 96-well plate and measuring the activity by the assay described by Prochaska and Santamaria (20) except that the final NADP^+ concentration was 200 μM (21). Samples were assayed in quadruplicate, and dicoumarol inhibitable-rates (which generally represented less than 5% of the total rate) were also measured. Spectrophotometric blanks contained 10 μl of DPBS with 0.5% Triton X-100. For the GSH assay, 300 μl of sample was placed in a centricon-10microconcentrator and centrifuged (5000×g×45 min) until enough ultrafiltrate could be collected. 50 μl/well of sample in quadruplicate was placed in a 96 well "half-area" plate after which 20 μl of 1 mM Ellman's reagent dissolved in DPBS was added. The yellow color (22) developed within 5 min and was scanned with a uvmax microtiter scanner (Palo Alto, Calif.) at 405 nm. Spectrophotometric blanks contained 50 μl DPBS with 0.5% Triton X-100 and 20 μl of 1 mM Ellman's reagent in DPBS. The optical densities of the specimens were calibrated to a GSH standard curve. Protein contents were determined in 3 ml cuvettes by the Bradford method (23). The protein content in the ultrafiltrates employed for GSH determinations were negligible (<0.01 mg/ml).
# HIV-1 (HTLVIIIB) [2] = test: microbe, parasite or virus in culture; settings: for synergy in inhibiting HIV-1 replication: p24 release / IFA, H9 cells, high viral inhibition
# Procedure: The effects for test compounds were assessed by means of both IFA and p24 release. In general, the following protocol was followed: H9 cells were infected with HIV-1 at 1000 50% infective doses of viruses/10^6 cells. Virus was allowed to adsorb for 1 h, after which unadsorbed virus was removed by centrifugation. The cells were resuspended and washed twice with PBS (without Ca^+2 or Mg^+2 salts) and centrifuged to collect the cell pellet (150×g×10 min). Cells were suspended in fresh medium and added at a final cell density of 500,000 cells/ml in a 96-well plate with media containing 0.1% DMSO and various concentrations of test compounds. The cells were re-fed freshly prepared media containing 0.1% DMSO±test compounds on day four (for preinduction experiments, cells were exposed to inducers on days -2, 0, and +4 days relative to infection). After seven days, cells were examined for cytoxicity by trypan blue exclusion, the degree of infection with HIV-1 by IFA, and the supernatants were assayed for p24 levels according to the manufacturer's directions. The IFA procedure can be summarized as follows: The cells were washed twice in PBS and were placed in 5 mm 12-well slides. After allowing the slides to dry and fixing the cells with acetone for 5 min, 10 μl of HIV-1 positive serum in 40 μl PBS was added to each well and allowed to incubate at 37° C. for 30 min. After incubation, the slides were washed twice with PBS and incubated at 37° C. for 30 min with 2.5 μl goat anti-human IgG-fluorescein isothiocyanate conjugate in 50 μl PBS containing 0.01% Evans Blue per well. The slides were then washed twice with PBS, dried, and mounted with 50% glycerol in PBS, and scored for the percentage of fluorescent cells by fluorescent microscopy.
# Statistical significance for GSH and QR levels were established by the unpaired t test using the INSTAT statistics program (Graphpad, San Diego, Calif.). The Ki of oltipraz was determined by performing Segal transformations (26) of Dixon plots. […] Calculations were performed on spreadsheets using Lotus 1-2-3 software (Cambridge, Mass.).
# [3] = tested on: glutathione S-transferases; settings: Schistosoma mansoni; cited from earlier work
# [4] = cited from earlier work
# HIV-1 (HTLVIIIB) [5] = test: microbe, parasite or virus in culture; type: cell-based
# H9 cells = test: Cytotoxicity in H9 cells by trypan blue exclusion; type: cell-based, human; settings: concentrations up to 120 μM, H9 cells
structure (smiles),measurement,setting,value
"Cc1c(-c2cnccn2)ssc1=S [compound 11, 4-methyl-5-(2-pyrazinyl)-1,2-dithiole-3-thione]",Glutathione Levels,"[1]; 24 h, 30 μM",62.0 ± 2.0 nmol/mg
same,Glutathione Levels,"[1]; 24 h, 60 μM",83.5 ± 1.7 nmol/mg
same,Glutathione Levels,"[1]; 24 h, 120 μM",109 ± 28 nmol/mg
same,Glutathione Levels,"[1]; 48 h, 30 μM",52.7 ± 2.9 nmol/mg
same,Glutathione Levels,"[1]; 48 h, 60 μM",68.0 ± 2.9 nmol/mg
same,Glutathione Levels,"[1]; 48 h, 120 μM",79.7 ± 0.28 nmol/mg
same,Glutathione Levels,"[1]; 72 h, 30 μM",40.4 ± 4.7 nmol/mg
same,Glutathione Levels,"[1]; 72 h, 60 μM",47.3 ± 4.6 nmol/mg
same,Glutathione Levels,"[1]; 72 h, 120 μM",75.0 ± 8.6 nmol/mg
same,fold induction at 30 µM,"[1]; H9, 24 h",1.1
same,fold induction at 60 µM,"[1]; H9, 24 h",1.48
same,fold induction at 120 µM,"[1]; H9, 24 h",1.93
same,fold induction at 30 µM,"[1]; H9, 48 h",1.52
same,fold induction at 60 µM,"[1]; H9, 48 h",1.96
same,fold induction at 120 µM,"[1]; H9, 48 h",2.28
same,fold induction at 30 µM,"[1]; H9, 72 h",0.86
same,fold induction at 60 µM,"[1]; H9, 72 h",1.01
same,fold induction at 120 µM,"[1]; H9, 72 h",1.6
same,elevation of GSH,"[1]; dose- and time-dependent, H9 cells",able to elevate both GSH and QR levels
same,IC50,"HIV-1 (HTLVIIIB) [2]; Human immunodeficiency virus 1, H9, read-out: IC50 as determined by p24 antigen release assays",14.8 ± 3.1 µM
same,IC50,"HIV-1 (HTLVIIIB) [2]; Human immunodeficiency virus 1, H9, read-out: median dose (p24 release)",19.4 µM
same,synergy in inhibiting HIV-1 replication,HIV-1 (HTLVIIIB) [2]; listed as Oltipraz,highly synergistic with azidothymidine (AZT)
same,synergy in inhibiting HIV-1 replication,HIV-1 (HTLVIIIB) [2]; listed as oltipraz,acts synergistically with AZT
same,inhibition of glutathione S-transferases,[3],irreversibly inhibits
same,tolerability at anti-HIV-1 doses,[4]; in vivo,well tolerated
same,tolerability of high doses,"[4]; single or split doses of 20-35 mg/kg, treatment of schistosomiasis",can be tolerated
same,"inhibition of HIV-1 replication, result in words",HIV-1 (HTLVIIIB) [5]; H9 cells,effective
same,inhibitory potency less than that of AZT (HIV-1 replication),"HIV-1 (HTLVIIIB) [5]; H9 cells, relative to AZT (FIG. 3)",approximately 100 fold
same,IC50,"HIV-1 (HTLVIIIB) [5]; Human immunodeficiency virus 1, H9, read-out: IC50 HIV-1 replication (Exp 1)",2 µM
same,IC50,"HIV-1 (HTLVIIIB) [5]; Human immunodeficiency virus 1, H9, read-out: IC50 HIV-1 replication (Exp 2)",3 µM
same,IC50,"HIV-1 (HTLVIIIB) [5]; Human immunodeficiency virus 1, H9, read-out: IC50 HIV-1 replication as determined by IFA",9.7 ± 2 µM
same,effect of pre-treatment of H9 cells with inducers on anti-HIV-1 activity,"HIV-1 (HTLVIIIB) [5]; inducers 3-4 days prior to exposure to virus, listed as oltipraz",did not increase the antiviral effect; also recorded: no enhancement of the anti-HIV-1 activity
same,cytotoxicity,H9 cells,non-cytotoxic
